Values of other authors as cited in US7282487B2, “Method for treating bacterial infections in horses or pigs with tilmicosin” (priority 2004, dated 2007).

- solubility in aqueous solutions: moderately soluble
Compound: CC[C@H]1OC(=O)C[C@@H](O)[C@H](C)[C@@H](OC2OC(C)C(O)C(N(C)C)C2O)[C@@H](CCN2C[C@@H](C)C[C@H](C)C2)C[C@@H](C)C(=O)/C=C/C(C)=C/[C@@H]1COC1OC(C)C(O)C(OC)C1OC (stereo partly shown) [tilmicosin, Tilmicosin]
